Experimental data published in patent US7834144B2 (priority 2005, dated 2010).
Several values for one entry are separate records, joined by “and”; a condition that tells them apart may be missing. Equal entries are not always repeated. Where two headings read alike, the source gives them in different places. Where a SMILES comes first, the peptide text is derived from it. Where no end group is shown, it is not given here. [ ]: non-standard residue; d: D form. The star is where a group is joined. ξ: configuration not given here. Biotinyl(4ξ) = O=C1N[C@H]2CSC(CCCCC(=O)*)[C@H]2N1; Nspe = C[C@H](NCC(=O)O)c1ccccc1; NhArg = N=C(N)NCCCCNCC(=O)O; Nmpe = not defined here; Nae = not defined here; Nlys = NCCCCNCC(=O)O

Tests used:
[1] = target: PrP^Sc (Homo sapiens, UniProt P04156); type: binding; settings: for Exp. Mean (1 ul 10% CJD BH): streptavidin beads
[2] = target: PrPc (Homo sapiens, UniProt P04156); type: binding
[3] = Table 5, 1 ul 10% CJD BH, 70% human plasma
[4] = Table 5, 70% human plasma, ELISA signal
[5] = Table 5, 70% human plasma, streptavidin beads, ELISA signal
[6] = Table 6, CJD brain homogenate in 20% human plasma
[7] = Table 6, CJD brain homogenate in 20% human plasma, ELISA signal

Compound | Exp. Mean (as % of 68) [1, 3] | Exp. Mean (1 ul 10% CJD BH) [1, 4] | Control Mean (1 ul 10% Normal BH) [2, 5] | Mean (% of 68) [1, 6] | Mean [1, 7] | also measured
CC(=O)N(CCCCN)CC(=O)N(CCCCN)CC(=O)N(CCCCN)CC(=O)N(CC(=O)N(CCCCN)CC(=O)N(CC(=O)N[C@@H](CCCCNC(=O)CCCCC1SC[C@@H]2NC(=O)N[C@H]12)C(N)=O)[C@@H](C)c1ccccc1)[C@@H](C)c1ccccc1 (some centres unmarked) [Peptoid Reagent IX] (Ac-[Nlys][Nlys][Nlys][Nspe][Nlys][Nspe]K(Biotinyl(4ξ))-NH2) | 126.5% | 528.8 | 9.47 | – | – | Exp. Mean (as % of 68) ([1]; Table 4, 1 ul 10% CJD BH, 70% human plasma): 121.9%; Exp. Mean (1 ul 10% CJD BH) ([1]; Table 4, 70% human plasma, ELISA signal): 1039.4; Control Mean (1 ul 10% Normal BH) ([2]; Table 4, 70% human plasma, streptavidin beads, ELISA signal): 20.1
CC(=O)N(CCCCN)CC(=O)N(CCCCN)CC(=O)N(CCCCNC(=N)N)CC(=O)N(CC(=O)N(CCCCN)CC(=O)N(CC(=O)N[C@@H](CCCCNC(=O)CCCCC1SC[C@@H]2NC(=O)N[C@H]12)C(N)=O)[C@@H](C)c1ccccc1)[C@@H](C)c1ccccc1 (some centres unmarked) [Peptoid Reagent II] (Ac-[Nlys][Nlys][NhArg][Nspe][Nlys][Nspe]K(Biotinyl(4ξ))-NH2) | 110.8% | 463.5 | 7.02 | 124.85% | 106.10 | –
(GGG)QWNKPSKPKTN [compound 14, reference compound] | – | – | – | – | – | Mean [1]: 4.74; Mean (% of 68) [1]: 5.58%
CC(=O)N(CCCCN)CC(=O)N(CC(=O)N(CCCCN)CC(=O)N(CCCCN)CC(=O)N(CC(=O)N(CCCCN)CC(=O)N[C@@H](CCCCNC(=O)CCCCC1SC[C@@H]2NC(=O)N[C@H]12)C(N)=O)[C@@H](C)c1ccccc1)[C@@H](C)c1ccccc1 (some centres unmarked) [Peptoid Reagent X] (Ac-[Nlys][Nspe][Nlys][Nlys][Nspe][Nlys]K(Biotinyl(4ξ))-NH2) | 114.5% | 478.7 | 7.28 | – | – | –
CC(=O)N(CCCCN)CC(=O)N(CCCCN)CC(=O)N(CCCCN)CC(=O)N(CCCCN)CC(=O)N(CCCCN)CC(=O)N[C@@H](CCCCNC(=O)CCCCC1SC[C@@H]2NC(=O)N[C@H]12)C(N)=O (some centres unmarked) [Peptoid Reagent I] | – | – | – | 104.31% | 88.64 | CJD Mean ([1]; Table 8, 2 microliters of 10% CJD brain homogenate in 70% human plasma): 124.47; Normal Mean ([2]; Table 8, 2 microliters of 10% normal brain homogenate in 70% human plasma): 3.31
Peptoid Reagent III: peptoid reagent comprising SEQ ID NO: 231, Nae-Nmpe-Nmpe-Nae-Nmpe-Nmpe-Nae-Nmpe-Nmpe ([Nae][Nmpe][Nmpe][Nae][Nmpe][Nmpe][Nae][Nmpe][Nmpe]; reading uncertain; also: printed as Nae-Nmpe-Nmpe-Nae-Nmpe-Nmpe-Nae-Nmpe-Nmpe) | – | – | – | 2.15% | 1.83 | –
(GGG)KKRPKPGG [compound 68, reference compound] | – | – | – | – | – | Exp. Mean (as % of 68) [1]: 100.0% and 100.1%; Mean [1]: 84.98 and 137.9; Mean (% of 68) [1]: 100.0%; Control Mean (1 ul 10% Normal BH) [2]: 19.2
